Test results taken from US20200239530A1, “COMPOUNDS AND METHODS OF MODULATING PROTEIN DEGRADATION” (Vividion Therapeutics, Inc., priority 2017, published 2020).

How the values were obtained:
[1] = molecular target: T1, TRIM56 E3 ubiquitin-protein ligase TRIM56 (Homo sapiens, UniProt Q9BRZ2); assay: Cysteine liganding, probe competition; type: binding
T1 construct: Cells were resuspended in cold PBS on ice and sonicated with a probe sonicator to achieve lysis; endogenous in cells
T1 sequence (Q9BRZ2 1-755): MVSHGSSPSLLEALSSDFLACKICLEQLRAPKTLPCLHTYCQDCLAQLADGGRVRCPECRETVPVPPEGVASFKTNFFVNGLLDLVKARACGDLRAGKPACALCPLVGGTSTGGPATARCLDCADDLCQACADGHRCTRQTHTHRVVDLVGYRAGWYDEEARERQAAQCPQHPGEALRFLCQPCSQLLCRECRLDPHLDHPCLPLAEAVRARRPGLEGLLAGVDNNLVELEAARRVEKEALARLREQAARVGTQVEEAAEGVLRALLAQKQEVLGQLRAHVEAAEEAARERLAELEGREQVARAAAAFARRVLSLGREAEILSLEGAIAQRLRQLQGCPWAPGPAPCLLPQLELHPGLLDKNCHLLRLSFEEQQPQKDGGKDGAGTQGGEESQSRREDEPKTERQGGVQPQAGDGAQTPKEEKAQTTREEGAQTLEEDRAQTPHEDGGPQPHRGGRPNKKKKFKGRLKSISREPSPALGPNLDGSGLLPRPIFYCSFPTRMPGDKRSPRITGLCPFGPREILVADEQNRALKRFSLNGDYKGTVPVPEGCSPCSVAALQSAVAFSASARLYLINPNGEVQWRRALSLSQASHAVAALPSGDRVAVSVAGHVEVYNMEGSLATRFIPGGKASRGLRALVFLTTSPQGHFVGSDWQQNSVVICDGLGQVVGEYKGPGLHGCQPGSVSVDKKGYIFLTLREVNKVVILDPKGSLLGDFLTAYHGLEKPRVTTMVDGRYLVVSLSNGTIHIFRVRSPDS
Summary of the method: (§1)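 Read-out is loss of desthiobiotin iodoacetamide labelling at cysteines, measured on streptavidin-enriched tryptic peptides. Compound preincubation ran 1 hr at 25° C in PBS lysate holding 5 mg/ml proteome before the probe was added.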

[2] = molecular target: T2, RPN1 Dolichyl-diphosphooligosaccharide--protein glycosy (Homo sapiens, UniProt P04843); assay: Cysteine liganding, probe competition; type: binding
T2 construct: Cells were resuspended in cold PBS on ice and sonicated with a probe sonicator to achieve lysis; endogenous in cells
T2 sequence (P04843 24-607): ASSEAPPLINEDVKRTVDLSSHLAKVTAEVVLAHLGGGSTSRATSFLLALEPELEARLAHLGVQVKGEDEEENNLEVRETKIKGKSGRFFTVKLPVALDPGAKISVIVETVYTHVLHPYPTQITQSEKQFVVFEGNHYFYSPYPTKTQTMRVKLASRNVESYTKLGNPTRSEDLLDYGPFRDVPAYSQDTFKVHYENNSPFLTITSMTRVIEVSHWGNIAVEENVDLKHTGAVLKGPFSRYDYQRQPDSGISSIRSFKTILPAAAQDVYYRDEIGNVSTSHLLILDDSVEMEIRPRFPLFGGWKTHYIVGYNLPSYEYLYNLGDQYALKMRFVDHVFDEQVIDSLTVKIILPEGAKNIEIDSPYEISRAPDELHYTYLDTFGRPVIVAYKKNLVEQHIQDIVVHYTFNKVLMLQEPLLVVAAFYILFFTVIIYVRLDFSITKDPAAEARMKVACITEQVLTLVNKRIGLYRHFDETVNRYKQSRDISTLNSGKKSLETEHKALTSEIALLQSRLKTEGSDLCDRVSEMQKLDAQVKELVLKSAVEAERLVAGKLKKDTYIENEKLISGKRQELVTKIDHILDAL
Summary of the method: as §1

SMILES	Liganded ([1]; TRIM56 Res# 338, uniprot Q9BRZ2)	Liganded ([2]; RPN1 Res# 477, uniprot P04843)	KB03_500 uM_percent_inhibition ([1]; 500 uM, UniProt Q9BRZ2) [%]	Liganded ([1]; TRIM56 Res# 36, uniprot Q9BRZ2)	500 Max ([1]; uniprot Q9BRZ2)	500 ave ([1]; uniprot Q9BRZ2)	100 Max ([2]; uniprot P04843)	100 ave ([2]; uniprot P04843)	500 ave ([2]; uniprot P04843)	500 Max ([2]; uniprot P04843, in % (unit assumed))
COc1ccc2c(c1)CCCN2C(=O)CCl [KB02]	YES	YES								
O=C(CCl)Nc1cc(C(F)(F)F)cc(C(F)(F)F)c1 [KBO3]			93	YES	78.3	78.3	9.24	−5.035	23.85	28.71
